{
  "source": "paper PMC9331957",
  "about": "“Design and Validation of Nanofibers Made of Self-Assembled Peptides to Become Multifunctional Stimuli-Sensitive Nanovectors of Anticancer Drug Doxorubicin” (Pharmaceutics, 2022)",
  "key": {"MDA-MB-231": {"test_system": "MDA-MB-231", "experiment": "Cell proliferation assay (CellTiter-Glo, ATP luminescence)", "format": "cell-based, human", "conditions": "MDA-MB-231, 72 h", "procedure": "The cytotoxicity profiles of the NF-Doxo and NF-Doxo-SPION were established on cancer cell line MDA-MB-231 (triple negative human breast cancer). Triple MDA-MB-231 (ECACC, Salisbury, UK) cells were cultured at 37 °C in an atmosphere containing 5% CO2. The culture medium was made of DMEM supplemented with 10% fetal bovine serum, 1% non-essential amino acid (Hyclone Laboratories, Logan, UT, USA), and 1% penicillin/streptomycin (Gibco®, Life Technologies, Paisley, UK). The cell harvesting was made with trypsin/EDTA (0.05%) (Gibco®, Life Technologies, Paisley, UK) at 80% of confluence.\nCell viability and proliferation were studied, using a luminescent test based on quantification of ATP, using the CellTiter-Glo cell proliferation assay (Promega, Madison, WI, USA). Briefly, 3.000 MDA-MB-231 cells were incubated in 100 μL of medium in 96-well plates for 24 h and then treated with different samples. A H2O2 solution at 10 mM was used as positive control and the culture medium alone was tested as a negative control. Doxo (stock solution at 5.24 mM in PBS) was used as a reference. […] Cell viability was then determined using CellTiter-Glo reagent (Promega, Madison, WI, USA). […] The luminescence values were measured with a gain at 135, with an acquisition at 0.5 s, using a microplate reader (Bio-Tek® instruments, Inc., VT, Santa Clara, CA, USA). […]"}, "MDA-MB-231 cells": {"test_system": "MDA-MB-231 cells", "conditions": "1 h, 5 µM", "source_text": "To study the uptake of the nanofibers by cancer cells in vitro, the intrinsic fluorescence of the Doxo was followed by means of the confocal spectral imaging (CSI) technique. Briefly, the CSI consists in recording a full fluorescence spectrum from each point of a scanned optical section of the selected cell and then generating the maps (pseudo-color images) reflecting the distribution of spectral parameters (position, shape, width, intensity) in correlation with biochemical events (accumulation, interaction, metabolism, etc). The cells (SKBR3 or MDA-MB-435 cancer cell lines) were plated at a density of 5 × 10^4 cells/well onto cover glasses in 24-well plates for 1 or 6 h. […] They were analyzed under the 50× LWD objective (numerical aperture 0.75; Olympus, Tokyo, Japan) of a LabRam laser scanning confocal microspectrometer (Horiba SA, Villeneuve d’Ascq, Hauts De France, France) equipped with a 491 nm laser source (Cobolt Calypso™), an automated X–Y–Z scanning stage, a low dispersion grating (300 grooves/mm) and an air-cooled EM CCD detector. […] For fluorescence spectral images acquisition from living cells, the living cells were placed under a 50× microscope and scanned through their equatorial optical section (scanning step of 0.8 µm). The full fluorescence spectrum was recorded from each scanned point (typically 30 × 30 spectra per cell, 0.05 s per spectrum). […]"}},
  "data": [
    {"smiles": "COc1cccc2c1C(=O)c1c(O)c3c(c(O)c1C2=O)C[C@@](O)(C(=O)CO)C[C@@H]3O[C@H]1C[C@H](N)[C@H](O)[C@H](C)O1", "note": "[Doxo, Doxorubicin]", "values": [
      {"measurement": "IC50 ratio between NF-Doxo and free Doxo (times lower)", "setting": "MDA-MB-231", "result": 10, "unit": "times"},
      {"measurement": "fraction of intracellular fluorescence: cytosolic", "setting": "MDA-MB-231 cells", "result": 24.6},
      {"measurement": "fraction of intracellular fluorescence: nuclear", "setting": "MDA-MB-231 cells", "result": 75.4}
    ]}
  ]
}
